Source: BindingDB's records for doi:10.1111/j.1476-5381.1981.tb10994.x (Royal Postgraduate Medical School, 1981)
Where “and” joins values, the source holds several entries; their conditions need not be identical. Equal values may be shown once.

Molecular target: Prostacyclin receptor (Homo sapiens, UniProt P43119)
Sequence (P43119 whole entry): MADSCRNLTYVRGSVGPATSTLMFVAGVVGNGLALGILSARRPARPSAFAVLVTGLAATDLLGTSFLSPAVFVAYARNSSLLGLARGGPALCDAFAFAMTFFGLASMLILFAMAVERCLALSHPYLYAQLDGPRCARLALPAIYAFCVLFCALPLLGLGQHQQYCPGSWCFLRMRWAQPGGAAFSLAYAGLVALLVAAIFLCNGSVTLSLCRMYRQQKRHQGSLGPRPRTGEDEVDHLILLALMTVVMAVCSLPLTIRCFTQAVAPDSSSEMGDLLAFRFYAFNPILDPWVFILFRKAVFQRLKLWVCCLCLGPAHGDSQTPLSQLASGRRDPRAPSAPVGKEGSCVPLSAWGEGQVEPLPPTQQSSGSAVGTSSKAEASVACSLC

Row | SMILES | Ki
1 | CCCCC[C@@H](O)/C=C/[C@H]1[C@H](O)CC(=O)[C@@H]1C/C=C\CCCC(=O)O | > 10 µM
2 | CCCCC[C@@H](O)/C=C/[C@H]1[C@H](O)CC(=O)[C@@H]1CCCCCCC(=O)O | 0.137 µM
3 | CCCCC[C@H](O)/C=C/[C@@H]1[C@H]2C/C(=C\CCCC(=O)O)C[C@H]2C[C@H]1O | 0.0166 µM
4 | CCCCC[C@H](O)/C=C/[C@@H]1[C@@H](CC(=O)CCC(=O)O)[C@@H](O)C[C@H]1O [2,3-dinor-6-ketoprostaglandin F1alpha] | > 10 µM
5 | CCCCC[C@H](O)/C=C/C1[C@H](O)CC(=O)[C@H]1CCCCCCC(=O)O (stereo partly drawn) [8-ISO PROSTAGLANDIN E1] | 0.735 µM
6 | CCCCCC(=O)CC[C@H]1[C@H](O)CC(=O)[C@@H]1C/C=C\CCCC(=O)O [13,14-DIHYDRO-15-KETO PROSTAGLANDIN E2] | 8.41 µM and > 10 µM
7 | O=C(O)CCC/C=C\C[C@H]1C(=O)C[C@@H](O)[C@@H]1/C=C/[C@@H](O)CCc1ccccc1 [17-PHENYL TRINOR PROSTAGLANDIN E2] | 4.37 µM
8 | CCCCC[C@H](O)/C=C/[C@H]1[C@H](O)CC(=O)[C@@H]1C/C=C/CCCC(=O)O [(E)-7-((1R,2R,3R)-3-hydroxy-2-((S,E)-3-hydroxyoct-1-enyl)-5-oxocyclopentyl)hept-5-enoic acid] | 0.735 µM

The remaining lines, values ahead:

Row | Ki | SMILES
9 | > 10 µM | CCCCC[C@H](O)/C=C/C1[C@H](O)C[C@H](O)[C@@H]1C/C=C\CCCC(=O)O (stereo partly drawn) [(Z)-7-[(1R,3R,5S)-3,5-Dihydroxy-2-((E)-(S)-3-hydroxy-oct-1-enyl)-cyclopentyl]-hept-5-enoic acid]
10 | 0.315 µM | CCCCC[C@H](O)CC[C@H]1[C@H](O)CC(=O)[C@@H]1CCCCCCC(=O)O [CAS_19313-28-1]
11 | 7.35 µM | CCCCCC(O)C=CC1C(O)CC2OC(CCCCC(=O)O)CC21 (stereo not drawn) [CAS_162981]
12 | > 10 µM | CCCCC[C@H](O)/C=C/[C@H]1[C@H](O)CC(=O)[C@@H]1C/C=C\CCCC(=O)O [DINOPROSTONE]
13 | > 10 µM | CCCCCC(O)C=CC1C(O)CC(O)C1CCCCCCC(=O)O (stereo not drawn) [NSC_5280939]
